pIC50: −log10 of the molar value. Where a name gives a salt, the structure may show the parent alone.
The compounds below were run against MCH receptor (Homo sapiens, UniProt Q99705) (assay: High throughput functional screening FLIPR/FDSS6000: inhibition of MCH-evoked intracellular Ca2+ changes). Conditions: antagonist activity, 50 nM of MCH, FLIPR or FDSS; read-out: IC50.
Format: cell-based
Description: Subsequently, a functional based assay was used to confirm the lead hits, referred to as FLIPR™ (the Fluorometric Imaging Plate Reader) and FDSS6000™ (Functional Drug Screening System). This assay utilized 3 non-endozenous, constitutively active version of the MCH receptor.
The FLIPR and FDSS assays are able to detect intracellular Ca^2+ concentration in cells, which can be utilized to assess receptor activation and determine whether a candidate compound is an, for example, antagonist, inverse agonist or agonist to a Gq-coupled receptor. The concentration of free Ca^2+ in the cytosol of any cell is extremely low, whereas its concentration in the extracellular fluid and endoplasmic reticulum (ER) is very high. Thus, there is a large gradient tending to drive Ca^2+ into the cytosol across both the plasma membrane and ER. The FLIPR™ and FDSS6000™ systems (Molecular Devices Corporation, HAMAMATSU Photonics K.K.) are designed to perform functional cell-based assays, such as the measurement of intracellular calcium for high-throughput screening, The measurement of fluorescent is associated with calcium release upon activation of the Gq-coupled receptors.
Fluorometric Imaging Plate Reader system was used to allow for rapid, kinetic measurements of intracellular fluorescence in 96 well microplates (or 384 well microplates). Simultaneous measurements of fluorescence in all wells can be made by FLIPR or FDSS6000™ every second with high sensitivity and precision. These systems are ideal for measuring cell-based functional assays such as monitoring the intracellular calcium fluxes that occur within seconds after activation of the Gq coupled receptor.
Briefly, the cells are seeded into 96 well at 5.5×10^4 cells/well with complete culture media (Dulbecco's Modified Eagle Medium with 10% fetal bovine serum, 2 mMi L-glutamine, 1 mM sodium pyruvate and 0.5 mg/ml G418, pH 7.4) for the assay next day. On the day of assay, the media is removed and the cells are incubated with 100 μl of loading buffer (4 μM Fluo4-AM in complete culture media containing 2.5 mM Probenicid, 0.5 mg/ml and 0.2% bovine serum albumin) in 5% CO2 incubator at 37° C. for 1 hr. The loading buffer is removed, and the cells are washed with wash buffer (Hank's Balanced Salt Solution containing 2.5 mM Probenicid, 20 mM HEPES, 0.5 mg/ml and 0.2% bovine serum albumm, pH 7.4)). One hundred fifty μl of wash buffer containing various concentrations of test compound is added to the cells, and the cells are incubated in 5% CO2 incubator at 37° C. for 3 min. Fifty μl of wash buffer containing various concentration of MCH are added to each well, and transient changes in [Ca^2+]i evokled bee MCH are monoitored using the FLIPR, or FDSS in 96 shell plates at Ex. 488 nm and Em. 530 nm for 290 second. When antagonist activity of compound is tested, 50 nM of MCH is used.
Use of FLIPR™ and FDSS6000™ can be accomplished by following manufacturer's instruction (Molecular Device Corporation and HAMAMATSU Photonics K.K.).
`COc1ccc(NC(=O)N[C@H]2CC[C@@H](Nc3nc(N(C)C)c4ccccc4n3)CC2)cc1OC` [Example 1, 1-(3,4-Dimethoxy)-phenyl)-3-[cis-4-(4-dimethylamino-quinazolin-2-ylamino)-cyclohexyl-urea hydrochloride] gave a pIC50 of 7.89. With `CN(C)c1nc(N[C@H]2CC[C@@H](CNC(=O)Nc3cccc(Cl)c3Cl)CC2)nc2ccccc12` [Example 2, 1-(2,3-Dichloro-phenyl)-3-[cis-4-(4-dimethylamino-quinazolin-2-ylamino)-cyclohexylmethyl]-urea hydrochloride] the pIC50 was 7.89. `CN(C)c1nc(N[C@H]2CC[C@@H](CNC(=O)Nc3c(Cl)cccc3Cl)CC2)nc2ccccc12` [Example 3, 1-(2,6-Dichloro-phenyl)-3-[cis-4-(4-dimethylamino-quinazolin-2-)ylamino)-cyclohexylmethyl]-urea hydrochloride] was tested, and the pIC50 was 8.31. Work on `Cc1cccc(Oc2ncccc2C(=O)N[C@H]2CC[C@@H](Nc3nc(N(C)C)c4ccccc4n3)CC2)c1` [Example 898, N-(cis-4-{[4-(Dimethylamino)quinazolin-2-yl]amino}cyclohexyl)-2-(3-methylphenoxy)-nicotinamide trifluoroacetate] yielded a pIC50 of 8.48. Work on `CN(C)c1nc(N[C@H]2CC[C@@H](NC(=O)COc3ccc(F)c(F)c3)CC2)nc2ccccc12` [Example 909, 2-(3,4-Difluorophenoxy)-N-(cis-4-{[4-(dimethylamino)quinazolin-2-yl]amino}cyclohexyl)-acetamide trifluoroacetate] yielded a pIC50 of 9.01.

Same assay, conditions: class by percent of control at 10^-7 M or IC50
For `CC(NC(=S)N[C@H]1CC[C@@H](Nc2nc(N(C)C)c3ccccc3n2)CC1)c1ccc(F)cc1` (relative stereo) [compound 273, N-(cis-4-{[4-(dimethylamino)quinazolin-2-yl]amino}cyclohexyl)-N′-[1-(4-fluorophenyl)ethyl]thiourea], the class was 2 (Class 2: The value of percent of control at 10^−7 M was from 40% to 60% or the value of IC50 was from 50 nM to 200 nM.). `CC(NC(=S)N[C@H]1CC[C@@H](Nc2nc(N(C)C)c3ccccc3n2)CC1)c1ccccc1` (relative stereo) [compound 283] was tested, and the class was 2 (Class 2: The value of percent of control at 10^−7 M was from 40% to 60% or the value of IC50 was from 50 nM to 200 nM.). With `CCOC(=O)[C@H](Cc1ccccc1)NC(=O)N[C@H]1CC[C@@H](Nc2nc(N(C)C)c3ccccc3n2)CC1` (relative stereo) [compound 336, ethyl N-{[(cis-4-{[4-(dimethylamino)quinazolin-2-yl]amino}cyclohexyl)amino]carbonyl}phenylalaninate] the class was 1 (Class 1: The value of percent of control at 10^−7 M was less than 40% or the value of IC50 was less than 50 nM.). In the case of `CN(C)c1nc(N[C@H]2CC[C@@H](NC(=S)NC3CC4CCC3C4)CC2)nc2ccccc12` (relative stereo) [compound 377], the class was 1 (Class 1: The value of percent of control at 10^−7 M was less than 40% or the value of IC50 was less than 50 nM.). For `CN(C)c1nc(N[C@H]2CC[C@@H](NC(=S)NC3CC4C=CC3C4)CC2)nc2ccccc12` (relative stereo) [compound 378], the class was 3 (Class 3: The value of percent of control at 10^−7 M was more than 60% or the value of IC50 was more than 200 nM.). In the case of `CN(C)c1nc(N[C@H]2CC[C@@H](CNC(=O)NC34CC5CC(CC(C5)C3)C4)CC2)nc2ccccc12` (relative stereo) [compound 406], the class was 3 (Class 3: The value of percent of control at 10^−7 M was more than 60% or the value of IC50 was more than 200 nM.). `CCOC(=O)[C@H](CC(C)C)NC(=O)NC[C@H]1CC[C@@H](Nc2nc(N(C)C)c3ccccc3n2)CC1` (relative stereo) [compound 435, ethyl N-({[(cis-4-{[4-(dimethylamino)quinazolin-2-yl]amino}cyclohexyl)methyl]amino}carbonyl)leucinate] was tested, and the class was 1 (Class 1: The value of percent of control at 10^−7 M was less than 40% or the value of IC50 was less than 50 nM.). For `COC(=O)[C@H](CCSC)NC(=O)NC[C@H]1CC[C@@H](Nc2nc(N(C)C)c3ccccc3n2)CC1` (relative stereo) [compound 442, methyl N-({[(cis-4-{[4-(dimethylamino)quinazolin-2-yl]amino}cyclohexyl)methyl]amino}carbonyl)methioninate], the class was 2 (Class 2: The value of percent of control at 10^−7 M was from 40% to 60% or the value of IC50 was from 50 nM to 200 nM.). For `CC(NC(=O)NC[C@H]1CC[C@@H](Nc2nc(N(C)C)c3ccccc3n2)CC1)c1cccc2ccccc12` (relative stereo) [compound 461], the class was 3 (Class 3: The value of percent of control at 10^−7 M was more than 60% or the value of IC50 was more than 200 nM.). With `COC(=O)[C@H](Cc1ccccc1)NC(=O)NC[C@H]1CC[C@@H](Nc2nc(N(C)C)c3ccccc3n2)CC1` (relative stereo) [compound 462] the class was 3 (Class 3: The value of percent of control at 10^−7 M was more than 60% or the value of IC50 was more than 200 nM.). With `CC(NC(=O)NC[C@H]1CC[C@@H](Nc2nc(N(C)C)c3ccccc3n2)CC1)c1ccccc1` (relative stereo) [compound 465, N-[(cis-4-{[4-(dimethylamino)quinazolin-2-yl]amino}cyclohexyl)methyl]-N′-(1-phenylethyl)urea] the class was 2 (Class 2: The value of percent of control at 10^−7 M was from 40% to 60% or the value of IC50 was from 50 nM to 200 nM.). For `CC(NC(=O)NC[C@H]1CC[C@@H](Nc2nc(N(C)C)c3ccccc3n2)CC1)c1ccc(Br)cc1` (relative stereo) [compound 575], the class was 3 (Class 3: The value of percent of control at 10^−7 M was more than 60% or the value of IC50 was more than 200 nM.). `CN(C)c1nc(N[C@H]2CC[C@@H](CNC(=S)NCC3CCCO3)CC2)nc2ccccc12` (relative stereo) [compound 620] was tested, and the class was 2 (Class 2: The value of percent of control at 10^−7 M was from 40% to 60% or the value of IC50 was from 50 nM to 200 nM.). In the case of `CN(C)c1nc(N[C@H]2CC[C@@H](CNC(=S)NC34CC5CC(CC(C5)C3)C4)CC2)nc2ccccc12` (relative stereo) [compound 624], the class was 3 (Class 3: The value of percent of control at 10^−7 M was more than 60% or the value of IC50 was more than 200 nM.). For `CC(NC(=S)NC[C@H]1CC[C@@H](Nc2nc(N(C)C)c3ccccc3n2)CC1)c1ccc(F)cc1` (relative stereo) [compound 697], the class was 2 (Class 2: The value of percent of control at 10^−7 M was from 40% to 60% or the value of IC50 was from 50 nM to 200 nM.). In the case of `CC(NC(=S)NC[C@H]1CC[C@@H](Nc2nc(N(C)C)c3ccccc3n2)CC1)c1ccccc1` (relative stereo) [compound 707], the class was 3 (Class 3: The value of percent of control at 10^−7 M was more than 60% or the value of IC50 was more than 200 nM.). For `CCOC(=O)[C@H](Cc1ccccc1)NC(=O)NC[C@H]1CC[C@@H](Nc2nc(N(C)C)c3ccccc3n2)CC1` (relative stereo) [compound 756], the class was 3 (Class 3: The value of percent of control at 10^−7 M was more than 60% or the value of IC50 was more than 200 nM.).

Same assay, conditions: class by percent of control at 10^-7 M or by IC50; read-out: class
Compound `CN(C)c1nc(N[C@H]2CC[C@@H](NC(=S)NC34CC5CC(CC(C5)C3)C4)CC2)nc2ccccc12` (relative stereo) [compound 200] has a pIC50 of less than 6.70. `CN(C)c1nc(N[C@H]2CC[C@@H](CNC(=S)NC3CC4CCC3C4)CC2)nc2ccccc12` (relative stereo) [compound 798] gave a pIC50 of 6.70 to 7.30. For `CN(C)c1nc(N[C@H]2CC[C@@H](CNC(=S)NC3CC4C=CC3C4)CC2)nc2ccccc12` (relative stereo) [compound 799, N-bicyclo[2.2.1]hept-5-en-2-yl-N′-[(cis-4-{[4-(dimethylamino)quinazolin-2-yl]amino}cyclohexyl)methyl]thiourea], the pIC50 was 6.70 to 7.30. For `CN(C)c1nc(N[C@H]2CC[C@@H](C(=O)NCc3ccc(F)cc3F)CC2)nc2ccccc12` [Example 922, cis-N-(2,4-Difluorobenzyl)-4-{[4-(dimethylamino)quinazolin-2-yl]amino}cyclohexanecarbozamide], the pIC50 was less than 6.70.

Same assay, conditions: class by percent of control at 10^−7 M or by IC50; read-out: class
In the case of `CN(C)c1nc(N[C@H]2CC[C@@H](C(=O)NCc3ccccc3)CC2)nc2cc(F)c(F)cc12` [Example 992, cis-N-benzyl-4-{[4-(dimethylamino)-6,7-difluoroquinazolin-2-yl]amino}cyclohexanecarboxamide], the pIC50 was 6.70 to 7.30.

From patent publication US20070010671A1, “Novel quinazoline derivatives and methods of treatment related to the use thereof” (priority 2003, published 2007)
